# Test results published in PubChem BioAssay (NCI).
#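 48-hour exposure; five concentrations; linearly interpolated endpoints. The concentration for 50% growth inhibition is given as GI50. TGI: total growth inhibition.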 Where a SMILES comes first, the peptide text is derived from it. [ ]: non-standard residue; d: D form. The star is where a group is joined. X13 = OC[C@H](CC1CCCCC1)N*; Aib = CC(C)(N)C(=O)O
# Assays:
# Assay in all cases: inhibition of tumour cell growth, NCI panel, 48 h
# COLO 205 colon = system: COLO 205 colon
# SNB-75 CNS = system: SNB-75 CNS
# SK-MEL-2 melanoma = system: SK-MEL-2 melanoma
# NCI-H23 lung = system: NCI-H23 lung
# SN12C renal = system: SN12C renal
# HCT-116 colon = system: HCT-116 colon
# UACC-257 melanoma = system: UACC-257 melanoma
# MDA-MB-435 = system: MDA-MB-435
# OVCAR-5 ovarian = system: OVCAR-5 ovarian
# SK-OV-3 ovarian = system: SK-OV-3 ovarian
# MDA-MB-231 breast = system: MDA-MB-231 breast
# RPMI-8226 leukemia = system: RPMI-8226 leukemia
# NCI-H522 lung = system: NCI-H522 lung
# A549 NSCLC = system: A549 NSCLC
# SK-MEL-28 melanoma = system: SK-MEL-28 melanoma
# OVCAR-4 ovarian = system: OVCAR-4 ovarian
# ACHN renal = system: ACHN renal
# OVCAR-8 ovarian = system: OVCAR-8 ovarian
# NCI-H226 lung = system: NCI-H226 lung
# BT-549 breast = system: BT-549 breast
# A498 renal = system: A498 renal
# UO-31 renal = system: UO-31 renal
# TK-10 renal = system: TK-10 renal
# SF-295 CNS = system: SF-295 CNS
# HL-60(TB) leukemia = system: HL-60(TB) leukemia
# EKVX NSCLC = system: EKVX NSCLC
# SR leukemia = system: SR leukemia
# HT29 colon = system: HT29 colon
# NCI-H460 lung = system: NCI-H460 lung
# HOP-92 NSCLC = system: HOP-92 NSCLC
# IGROV1 ovarian = system: IGROV1 ovarian
# PC-3 prostate = system: PC-3 prostate
# T-47D breast = system: T-47D breast
# MALME-3M melanoma = system: MALME-3M melanoma
# K-562 leukemia = system: K-562 leukemia
# 786-0 renal = system: 786-0 renal
# HCT-15 colon = system: HCT-15 colon
# SF-268 CNS = system: SF-268 CNS
# KM12 colon = system: KM12 colon
# OVCAR-3 ovarian = system: OVCAR-3 ovarian
# CCRF-CEM leukemia = system: CCRF-CEM leukemia
# UACC-62 melanoma = system: UACC-62 melanoma
# LOX IMVI melanoma = system: LOX IMVI melanoma
# M14 melanoma = system: M14 melanoma
# HCC-2998 colon = system: HCC-2998 colon
# SK-MEL-5 melanoma = system: SK-MEL-5 melanoma
# MOLT-4 leukemia = system: MOLT-4 leukemia
# SW-620 colon = system: SW-620 colon
# DU-145 prostate = system: DU-145 prostate
# SNB-19 CNS = system: SNB-19 CNS
# RXF 393 renal = system: RXF 393 renal
# NCI/ADR-RES ovarian = system: NCI/ADR-RES ovarian
# MCF7 breast = system: MCF7 breast
# HS 578T breast = system: HS 578T breast
# U251 CNS = system: U251 CNS
# SF-539 CNS = system: SF-539 CNS
# HOP-62 NSCLC = system: HOP-62 NSCLC
structure (smiles),measurement,setting,value
CC(=O)NC(C)(C)C(=O)N[C@@H](C)C(=O)NC(C)(C)C(=O)N[C@@H](C)C(=O)NC(C)(C)C(=O)N[C@@H](C)C(=O)N[C@@H](CCC(N)=O)C(=O)NC(C)(C)C(=O)N[C@H](C(=O)NC(C)(C)C(=O)NCC(=O)N[C@@H](CC(C)C)C(=O)NC(C)(C)C(=O)N1CCC[C@H]1C(=O)N[C@H](C(=O)NC(C)(C)C(=O)NC(C)(C)C(=O)N[C@@H](CCC(N)=O)C(=O)N[C@@H](CCC(N)=O)C(=O)N[C@H](CO)CC1CCCCC1)C(C)C)C(C)C (Ac-[Aib]A[Aib]A[Aib]AQ[Aib]V[Aib]GL[Aib]PV[Aib][Aib]QQ-X13),GI50,COLO 205 colon,0.178 µM
same,TGI,COLO 205 colon,1.22 µM
same,GI50,SNB-75 CNS,1.07 µM
same,TGI,SNB-75 CNS,> 5 µM
same,GI50,SK-MEL-2 melanoma,1.44 µM
same,TGI,SK-MEL-2 melanoma,> 5 µM
same,GI50,NCI-H23 lung,1.38 µM
same,TGI,NCI-H23 lung,> 5 µM
same,GI50,SN12C renal,1.82 µM
same,TGI,SN12C renal,> 5 µM
same,GI50,HCT-116 colon,2.04 µM
same,TGI,HCT-116 colon,> 5 µM
same,GI50,UACC-257 melanoma,0.446 µM
same,TGI,UACC-257 melanoma,2.67 µM
same,GI50,MDA-MB-435,0.834 µM
same,TGI,MDA-MB-435,> 5 µM
same,GI50,OVCAR-5 ovarian,> 4.67 µM
same,TGI,OVCAR-5 ovarian,> 5 µM
same,GI50,SK-OV-3 ovarian,> 5 µM
same,TGI,SK-OV-3 ovarian,> 5 µM
same,GI50,MDA-MB-231 breast,2.49 µM
same,TGI,MDA-MB-231 breast,> 5 µM
same,GI50,RPMI-8226 leukemia,1.16 µM
same,TGI,RPMI-8226 leukemia,4 µM
same,GI50,NCI-H522 lung,1.04 µM
same,TGI,NCI-H522 lung,> 5 µM
same,GI50,A549 NSCLC,> 5 µM
same,TGI,A549 NSCLC,> 5 µM
same,GI50,SK-MEL-28 melanoma,0.199 µM
same,TGI,SK-MEL-28 melanoma,1.37 µM
same,GI50,OVCAR-4 ovarian,1.58 µM
same,TGI,OVCAR-4 ovarian,> 5 µM
same,GI50,ACHN renal,> 5 µM
same,TGI,ACHN renal,> 5 µM
same,GI50,OVCAR-8 ovarian,> 4.25 µM
same,TGI,OVCAR-8 ovarian,> 5 µM
same,GI50,NCI-H226 lung,2.06 µM
same,TGI,NCI-H226 lung,> 5 µM
same,GI50,BT-549 breast,1.43 µM
same,TGI,BT-549 breast,> 5 µM
same,GI50,A498 renal,> 4.12 µM
same,TGI,A498 renal,> 5 µM
same,GI50,UO-31 renal,> 3.96 µM
same,TGI,UO-31 renal,> 5 µM
same,GI50,TK-10 renal,3.43 µM
same,TGI,TK-10 renal,> 5 µM
same,GI50,SF-295 CNS,1.64 µM
same,TGI,SF-295 CNS,> 5 µM
same,GI50,HL-60(TB) leukemia,1.3 µM
same,TGI,HL-60(TB) leukemia,> 5 µM
same,GI50,EKVX NSCLC,2.29 µM
same,TGI,EKVX NSCLC,> 5 µM
same,GI50,SR leukemia,3.37 µM
same,TGI,SR leukemia,> 5 µM
same,GI50,HT29 colon,0.286 µM
same,TGI,HT29 colon,> 5 µM
same,GI50,NCI-H460 lung,1.51 µM
same,TGI,NCI-H460 lung,> 5 µM
same,GI50,HOP-92 NSCLC,1.01 µM
same,TGI,HOP-92 NSCLC,3.8 µM
same,GI50,IGROV1 ovarian,3.06 µM
same,TGI,IGROV1 ovarian,> 5 µM
same,GI50,PC-3 prostate,1.98 µM
same,TGI,PC-3 prostate,> 5 µM
same,GI50,T-47D breast,1.26 µM
same,TGI,T-47D breast,> 5 µM
same,GI50,MALME-3M melanoma,0.0306 µM
same,TGI,MALME-3M melanoma,0.239 µM
same,GI50,K-562 leukemia,2.2 µM
same,TGI,K-562 leukemia,> 5 µM
same,GI50,786-0 renal,> 5 µM
same,TGI,786-0 renal,> 5 µM
same,GI50,HCT-15 colon,> 5 µM
same,TGI,HCT-15 colon,> 5 µM
same,GI50,SF-268 CNS,2.24 µM
same,TGI,SF-268 CNS,> 5 µM
same,GI50,KM12 colon,> 4.1 µM
same,TGI,KM12 colon,> 5 µM
same,GI50,OVCAR-3 ovarian,1.68 µM
same,TGI,OVCAR-3 ovarian,> 5 µM
same,GI50,CCRF-CEM leukemia,> 4.8 µM
same,TGI,CCRF-CEM leukemia,> 5 µM
same,GI50,UACC-62 melanoma,0.609 µM
same,TGI,UACC-62 melanoma,> 5 µM
same,GI50,LOX IMVI melanoma,1.56 µM
same,TGI,LOX IMVI melanoma,> 5 µM
same,GI50,M14 melanoma,0.221 µM
same,TGI,M14 melanoma,> 5 µM
same,GI50,HCC-2998 colon,2.91 µM
same,TGI,HCC-2998 colon,> 5 µM
same,GI50,SK-MEL-5 melanoma,1.1 µM
same,TGI,SK-MEL-5 melanoma,> 3.14 µM
same,GI50,MOLT-4 leukemia,> 5 µM
same,TGI,MOLT-4 leukemia,> 5 µM
same,GI50,SW-620 colon,1.65 µM
same,TGI,SW-620 colon,> 5 µM
same,GI50,DU-145 prostate,1.33 µM
same,TGI,DU-145 prostate,> 5 µM
same,GI50,SNB-19 CNS,1.79 µM
same,TGI,SNB-19 CNS,> 5 µM
same,GI50,RXF 393 renal,2.63 µM
same,TGI,RXF 393 renal,> 5 µM
same,GI50,NCI/ADR-RES ovarian,> 5 µM
same,TGI,NCI/ADR-RES ovarian,> 5 µM
same,GI50,MCF7 breast,0.399 µM
same,TGI,MCF7 breast,> 5 µM
same,GI50,HS 578T breast,3.71 µM
same,TGI,HS 578T breast,> 5 µM
same,GI50,U251 CNS,2.19 µM
same,TGI,U251 CNS,> 5 µM
same,GI50,SF-539 CNS,2.28 µM
same,TGI,SF-539 CNS,> 5 µM
same,GI50,HOP-62 NSCLC,> 5 µM
same,TGI,HOP-62 NSCLC,> 5 µM
